Results from PubChem BioAssay AID1963835 (Molecular Pharmacology Branch, DTP, NCI, 2024).
pIC50: −log10 of the molar value.

Tested on: 699152-130-R-J1-PDC complex spheroid viability
Assay: Anticancer human tumor 699152-130-R-J1-PDC patient-derived pancreatic carcinoma cell line growth inhibition [POLQ]
Details: for pIC50: curve of first compound; for viability, T/C: stronger effect = lower value
Summary of the method: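 Three-cell-type spheroids modelling solid tumor plus stroma served as the readout system; POL inhibitors were tested individually and in combination, concentration ranges set by clinical Cmax where known.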

[1] = second compound 0.0316 µM, first compound 0.000316 µM
[2] = second compound 0.0316 µM, first compound 0.001 µM
[3] = second compound 0.0316 µM, first compound 0.00316 µM
[4] = second compound 0.0316 µM, first compound 0.01 µM
[5] = second compound 0.0316 µM, first compound 0.0316 µM
[6] = second compound 0.0316 µM, first compound 0.1 µM
[7] = second compound 0.1 µM, first compound 0.000316 µM
[8] = second compound 0.1 µM, first compound 0.001 µM
[9] = second compound 0.1 µM, first compound 0.00316 µM
[10] = second compound 0.1 µM, first compound 0.01 µM
[11] = second compound 0.1 µM, first compound 0.0316 µM
[12] = second compound 0.1 µM, first compound 0.1 µM
[13] = second compound 0.316 µM, first compound 0.000316 µM
[14] = second compound 0.316 µM, first compound 0.001 µM
[15] = second compound 0.316 µM, first compound 0.00316 µM
[16] = second compound 0.316 µM, first compound 0.01 µM
[17] = second compound 0.316 µM, first compound 0.0316 µM
[18] = second compound 0.316 µM, first compound 0.1 µM
[19] = second compound 1 µM, first compound 0.000316 µM
[20] = second compound 1 µM, first compound 0.001 µM
[21] = second compound 1 µM, first compound 0.00316 µM
[22] = second compound 1 µM, first compound 0.01 µM
[23] = second compound 1 µM, first compound 0.0316 µM
[24] = second compound 1 µM, first compound 0.1 µM
[25] = second compound 3.16 µM, first compound 0.000316 µM
[26] = second compound 3.16 µM, first compound 0.001 µM
[27] = second compound 3.16 µM, first compound 0.00316 µM
[28] = second compound 3.16 µM, first compound 0.01 µM
[29] = second compound 3.16 µM, first compound 0.0316 µM
[30] = second compound 3.16 µM, first compound 0.1 µM
[31] = second compound 10 µM, first compound 0.000316 µM
[32] = second compound 10 µM, first compound 0.001 µM
[33] = second compound 10 µM, first compound 0.00316 µM
[34] = second compound 10 µM, first compound 0.01 µM
[35] = second compound 10 µM, first compound 0.0316 µM
[36] = second compound 10 µM, first compound 0.1 µM
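Also: spheroids exposed to agents for 7 days before viability reading.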
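For viability, T/C in this document: percent of DMSO vehicle control viability so 100% = vehicle and 0% = no viable signal.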

With `Cn1ncnc1[C@H]1c2n[nH]c(=O)c3cc(F)cc(c23)N[C@@H]1c1ccc(F)cc1` + Cc1cccc(N(C)C(=O)C2C(O)CCN2c2nc(C)cc(C(F)(F)F)c2C#N)c1 the pIC50 (second compound 0.0316 µM) was less than 7.00, the pIC50 (second compound 0.1 µM) was less than 7.00 and the pIC50 (second compound 0.316 µM) was less than 7.00. The pIC50 (second compound 1 µM) was less than 7.00, the pIC50 (second compound 3.16 µM) was less than 7.00 and the pIC50 (second compound 10 µM) was less than 7.00. For the same molecule, the viability, T/C [1] was 103%, the viability, T/C [2] was 87.7% and the viability, T/C [3] was 95.1%. The viability, T/C [4] was 88.6%, the viability, T/C [5] was 99.4% and the viability, T/C [6] was 81%. For the same molecule, the viability, T/C [7] was 100%, the viability, T/C [8] was 100% and the viability, T/C [9] was 91.6%. The viability, T/C [10] was 99.3%, the viability, T/C [11] was 85.3% and the viability, T/C [12] was 86.6%. It also gave a viability, T/C [13] of 94.8%, a viability, T/C [14] of 97.6% and a viability, T/C [15] of 86.4%. The viability, T/C [16] was 89.3%, the viability, T/C [17] was 117% and the viability, T/C [18] was 73.6%. It also gave a viability, T/C [19] of 100%, a viability, T/C [20] of 89.6% and a viability, T/C [21] of 95%. The viability, T/C [22] was 87.2%, the viability, T/C [23] was 108% and the viability, T/C [24] was 87.2%. For the same molecule, the viability, T/C [25] was 94.1%, the viability, T/C [26] was 102% and the viability, T/C [27] was 93.8%. It also gave a viability, T/C [28] of 95.7%, a viability, T/C [29] of 93% and a viability, T/C [30] of 90.7%. It also gave a viability, T/C [31] of 104%, a viability, T/C [32] of 81.8% and a viability, T/C [33] of 97.1%. It also gave a viability, T/C [34] of 88.5%, a viability, T/C [35] of 101% and a viability, T/C [36] of 83.5%.

`Cn1ncnc1[C@H]1c2n[nH]c(=O)c3cc(F)cc(c23)N[C@@H]1c1ccc(F)cc1` + Nc1ccc(C#CCN(C(=O)Cc2ncc(C(F)(F)F)cc2C(F)(F)F)c2ccc(F)cc2)nn1 was tested, and the pIC50 (second compound 0.0316 µM) was less than 7.00, the pIC50 (second compound 0.1 µM) was less than 7.00 and the pIC50 (second compound 0.316 µM) was less than 7.00. It also gave a pIC50 (second compound 1 µM) of less than 7.00, a pIC50 (second compound 3.16 µM) of less than 7.00 and a pIC50 (second compound 10 µM) of less than 7.00. The viability, T/C [1] was 102%, the viability, T/C [2] was 86.8% and the viability, T/C [3] was 89.6%. For the same molecule, the viability, T/C [4] was 97.1%, the viability, T/C [5] was 87% and the viability, T/C [6] was 82.2%. It also gave a viability, T/C [7] of 106%, a viability, T/C [8] of 89.1% and a viability, T/C [9] of 87.5%. The viability, T/C [10] was 101%, the viability, T/C [11] was 96% and the viability, T/C [12] was 82.8%. It also gave a viability, T/C [13] of 102%, a viability, T/C [14] of 91.6% and a viability, T/C [15] of 103%. It also gave a viability, T/C [16] of 85.4%, a viability, T/C [17] of 92.6% and a viability, T/C [18] of 77.5%. The viability, T/C [19] was 102%, the viability, T/C [20] was 102% and the viability, T/C [21] was 89.4%. For the same molecule, the viability, T/C [22] was 98.8%, the viability, T/C [23] was 104% and the viability, T/C [24] was 76.5%. It also gave a viability, T/C [25] of 90.7%, a viability, T/C [26] of 98% and a viability, T/C [27] of 105%. The viability, T/C [28] was 94.7%, the viability, T/C [29] was 91.7% and the viability, T/C [30] was 89.5%. For the same molecule, the viability, T/C [31] was 103%, the viability, T/C [32] was 106% and the viability, T/C [33] was 108%. For the same molecule, the viability, T/C [34] was 95.2%, the viability, T/C [35] was 101% and the viability, T/C [36] was 99.6%.

Work on `CNCc1ccc(-c2[nH]c3cc(F)cc4c3c2CCNC4=O)cc1` + COC1C(OC(N)=O)C(O)C(Oc2ccc3c(O)c(NC(=O)c4ccc(O)c(CC=C(C)C)c4)c(=O)oc3c2C)OC1(C)C yielded a pIC50 (second compound 0.0316 µM) of less than 5.00, a pIC50 (second compound 0.1 µM) of less than 5.00 and a pIC50 (second compound 0.316 µM) of less than 5.00. It also gave a pIC50 (second compound 1 µM) of less than 5.00, a pIC50 (second compound 3.16 µM) of less than 5.00 and a pIC50 (second compound 10 µM) of less than 5.00. It also gave a viability, T/C [5] of 94.8%, a viability, T/C [6] of 95.1% and a viability, T/C (second compound 0.0316 µM, first compound 0.316 µM) of 101%. The viability, T/C (second compound 0.0316 µM, first compound 1 µM) was 106%, the viability, T/C (second compound 0.0316 µM, first compound 3.16 µM) was 126% and the viability, T/C (second compound 0.0316 µM, first compound 10 µM) was 123%. The viability, T/C [11] was 96.4%, the viability, T/C [12] was 95.6% and the viability, T/C (second compound 0.1 µM, first compound 0.316 µM) was 92.9%. It also gave a viability, T/C (second compound 0.1 µM, first compound 1 µM) of 120%, a viability, T/C (second compound 0.1 µM, first compound 3.16 µM) of 115% and a viability, T/C (second compound 0.1 µM, first compound 10 µM) of 130%. For the same molecule, the viability, T/C [17] was 102%, the viability, T/C [18] was 103% and the viability, T/C (second compound 0.316 µM, first compound 0.316 µM) was 106%. It also gave a viability, T/C (second compound 0.316 µM, first compound 1 µM) of 97.8%, a viability, T/C (second compound 0.316 µM, first compound 3.16 µM) of 118% and a viability, T/C (second compound 0.316 µM, first compound 10 µM) of 125%. For the same molecule, the viability, T/C [23] was 101%, the viability, T/C [24] was 94.9% and the viability, T/C (second compound 1 µM, first compound 0.316 µM) was 107%. It also gave a viability, T/C (second compound 1 µM, first compound 1 µM) of 98%, a viability, T/C (second compound 1 µM, first compound 3.16 µM) of 113% and a viability, T/C (second compound 1 µM, first compound 10 µM) of 114%. It also gave a viability, T/C [29] of 103%, a viability, T/C [30] of 105% and a viability, T/C (second compound 3.16 µM, first compound 0.316 µM) of 93.8%. For the same molecule, the viability, T/C (second compound 3.16 µM, first compound 1 µM) was 98.2%, the viability, T/C (second compound 3.16 µM, first compound 3.16 µM) was 133% and the viability, T/C (second compound 3.16 µM, first compound 10 µM) was 93.6%. The viability, T/C [35] was 102%, the viability, T/C [36] was 88.3% and the viability, T/C (second compound 10 µM, first compound 0.316 µM) was 107%. For the same molecule, the viability, T/C (second compound 10 µM, first compound 1 µM) was 101%, the viability, T/C (second compound 10 µM, first compound 3.16 µM) was 125% and the viability, T/C (second compound 10 µM, first compound 10 µM) was 108%.
